Results published in patent US20180092866A1, “SUBSTITUTED N-([1,1'-BIPHENYL]-3-YL)-[1,1'-BIPHENYL]-3-CARBOXAMIDE ANALOGS AS INHIBITORS FOR BETA-CATENIN/B-CELL LYMPHOMA 9 INTERACTIONS” (University of Utah Research Foundation, priority 2015, published 2018).
Where a chain is given by its changes, count along the chain named. Where a name gives a salt, the structure may show the parent alone.

Key:
[1] = biological target: T1, β-catenin L156S/L178S mutant (residues 138-686) (Homo sapiens, UniProt P35222, L156S/L178S); assay: Isothermal titration calorimetry, β-catenin L156S/L178S; format: binding; details: ITC
T1 construct: His6 (C); made in house; host or cells: E. coli BL21 DE3
T1 sequence (P35222 138-686 L156S/L178S): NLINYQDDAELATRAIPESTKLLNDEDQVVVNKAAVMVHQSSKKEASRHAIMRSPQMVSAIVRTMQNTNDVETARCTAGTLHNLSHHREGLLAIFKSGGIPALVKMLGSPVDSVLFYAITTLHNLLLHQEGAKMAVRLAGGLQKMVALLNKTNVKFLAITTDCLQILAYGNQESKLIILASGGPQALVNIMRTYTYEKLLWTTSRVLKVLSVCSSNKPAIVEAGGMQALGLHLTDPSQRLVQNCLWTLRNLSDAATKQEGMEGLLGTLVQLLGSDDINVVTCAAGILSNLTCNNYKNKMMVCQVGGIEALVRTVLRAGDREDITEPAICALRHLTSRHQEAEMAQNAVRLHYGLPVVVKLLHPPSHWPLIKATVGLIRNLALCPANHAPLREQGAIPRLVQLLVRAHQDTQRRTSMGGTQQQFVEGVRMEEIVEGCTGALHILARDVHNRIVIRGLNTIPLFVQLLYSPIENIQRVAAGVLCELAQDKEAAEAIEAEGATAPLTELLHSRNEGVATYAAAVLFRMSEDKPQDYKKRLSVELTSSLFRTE
Text: (§1) Mutants β-catenin D145A, E155A, L156S, L159S, D145A/E155A, L156S/L159S, and L156S/L178S were generated using the overlapping PCR method. Template for the mutagenesis reactions was wide type full-length β-catenin in pET-28b. KOD hot start DNA polymerase (Novagen) was used through this experiment. Mutants were confirmed by direct sequencing (Core facility, University of Utah). Following the confirmation of the sequence, mutant β-catenin were cloned into a pET-28b vector and transformed into E. coli BL21 DE3.
(§2) ITC measurements were performed at 28° C. using a VP-ITC (Microcal, GE Healthcare Life Sciences). […] The homogeneity of the purified proteins were examined by native gel electrophoresis. Each titration experiment was initiated by a 2 μL injection, and followed by 30-35 times injections with an 8 μL volume each. Blank titrations, which were carried out by injecting the compound into the buffer, were subtracted from each data set. The association constant KA, enthalpy change (ΔH), and stoichiometry N were obtained from fitting the data using the Origin software package. The dissociation constant Kd, the free energy change ΔG, and the entropy change ΔS were obtained from the basic thermodynamic equations, Kd=KA^−1, ΔG=−RTlnKA, and ΔG=ΔH−TΔS.

[2] = system: AXIN2, LGR5, LEF1, and cyclin D1 transcription in MDA-MB-231 cells; assay: Quantitative real-time PCR, MDA-MB-231 cells; format: cell-based, human; details: 2 and 4 μM
Description: SW480 and MDA-MB-231 cells at 1×10^6/mL were treated with different concentrations of 21 for 24 h. Total RNAs were extracted with TRIzol ([…], Life Technologies), and the cDNA was synthesized with the superscript III first-strand kit (18080-051, Invitrogen). Quantitative PCR (qPCR) was performed using the iQ™ SYBR green supermix kit (170-8880, BIO-RAD) on an iQ^5 multicolor real-time PCR reaction system (BIO-RAD). The threshold cycle (CT) values were normalized to that of internal reference GAPDH. The primer pairs for human GAPDH were forward: 5′-[…]-3′, and reverse: 5′-[…]-3′, for human AXIN2 forward: 5′-[…]-3′ and reverse: 5′-[…]-3′, for human LGR5 forward: 5′-[…]-3′ and reverse: 5′-[…]-3′, for human LEF1 forward: 5′-[…]-3′ and reverse: 5′-[…] […]-3′, and for human cyclin D1 forward: 5′-[…]-3′, and revers: 5′-[…]-3′. Experiments were performed in triplicate.

[3] = biological target: T2, wild-type human β-catenin (residues 138-686) (Homo sapiens, UniProt P35222); assay: Isothermal titration calorimetry, wild-type β-catenin; format: binding; details: ITC, 28° C.
T2 construct: His6 (C); made in house; host or cells: E. coli BL21 DE3
T2 sequence (P35222 138-686): T1 sequence (P35222 138-686 L156S/L178S) with S19L, S41L
Description: as §2

[4] = biological target: T3, β-catenin L159S mutant (residues 138-686) (Homo sapiens, UniProt P35222, L159S); assay: Isothermal titration calorimetry, β-catenin L159S; format: binding; details: ITC
T3 construct: His6 (C); made in house; host or cells: E. coli BL21 DE3
T3 sequence (P35222 138-686 L159S): T1 sequence (P35222 138-686 L156S/L178S) with S19L, L22S, S41L
Text: as §1, §2

[5] = biological target: T4, β-catenin/BCL9 protein-protein interactions (Homo sapiens, UniProt P35222); assay: AlphaScreen competitive inhibition assay, wild-type β-catenin/BCL9; format: binding; details: for Ki: wild-type β-catenin (residues 138-686)/biotinylated BCL9 26-mer, Ki derived from IC50, mean ± SD
T4 construct: C-terminally His6-tagged wild-type or mutant β-catenin (residues 138-686) proteins; made in house; host or cells: E. coli BL21 DE3
T4 sequence (P35222 138-686): T1 sequence (P35222 138-686 L156S/L178S) with S19L, S41L
Description: The purity of the wild-type and mutant β-catenin proteins was all greater than 95% as determined by the SDS-PAGE gel analysis. Both the wild-type and mutant β-catenin proteins are stable under the testing conditions. Native non-denaturing gel electrophoresis was performed to confirm the homogeneity of the purified proteins. Experiments were performed in white opaque 384-well plates from PerkinElmer, and the samples were read on a Synergy 2 plate reader (Biotek) with a sensitivity setting of 200 using AlphaScreen protocol with excitation at 680 nm and emission at 570 nm. All dilutions were made in 1×assay buffer containing 25 mM HEPES (pH=7.0), 100 mM NaCl, 0.01% Triton X-100, and 0.1% BSA. In the AlphaScreen competitive inhibition assay, 40 nM of C-terminally His6-tagged wild-type or mutant β-catenin (residues 138-686) proteins was incubated with 5 nM of N-terminal biotinylated human BCL9 26-mer (residues 350-375) for 30 min at 4° C., and then different concentrations of the tested inhibitors in the assay buffer were added to make a final volume of 20 μL. The mixture was incubated at 4° C. for 2 h. The donor and acceptor beads were added to a final concentration of 10 μg/mL in 25 μL of assay buffer. The mixture was incubated at 4° C. for 1 h. The IC50 value was determined by nonlinear least-square analysis of GraphPad Prism 5.0. […] The Ki values were derived from the IC50 values by a reported method (Nikolovska-Coleska et al. (2004) Anal. Biochem. […]: 261-273). Experiments were performed in triplicate and carried out in the presence of 1% DMSO.

[6] = biological target: T5, β-catenin/E-cadherin PPIs (Homo sapiens, UniProt P35222); assay: AlphaScreen selectivity assay, β-catenin/BCL9 versus β-catenin/E-cadherin; format: binding
T5 construct: β-Catenin or its mutants (residues 138-686) was cloned into a pET-28b vector; made in house; host or cells: E. coli BL21 DE3
T5 sequence (P35222 138-686): T1 sequence (P35222 138-686 L156S/L178S) with S19L, S41L
Text: Human BCL9 (residues 350-375), N-terminally biotinylated human BCL9 (residues 350-375), N-terminally fluorescein-labeled human BCL9 (residues 350-375), and N-terminally biotinylated human E-cadherin (residues 824-877) were synthesized by InnoPep Inc. (San Diego, Calif., www.innopep.com). All synthesized peptides were purified by HPLC with purity >95%. The structures were validated by LC/MS. The sequences are shown in Table 2 (Ahx, 6-aminohexanoic acid).
The purity of the wild-type and mutant β-catenin proteins was all greater than 95% as determined by the SDS-PAGE gel analysis. Both the wild-type and mutant β-catenin proteins are stable under the testing conditions. Native non-denaturing gel electrophoresis was performed to confirm the homogeneity of the purified proteins. Experiments were performed in white opaque 384-well plates from PerkinElmer, and the samples were read on a Synergy 2 plate reader (Biotek) with a sensitivity setting of 200 using AlphaScreen protocol with excitation at 680 nm and emission at 570 nm. All dilutions were made in 1×assay buffer containing 25 mM HEPES (pH=7.0), 100 mM NaCl, 0.01% Triton X-100, and 0.1% BSA. […] The IC50 value was determined by nonlinear least-square analysis of GraphPad Prism 5.0. […]

Ki [5] | Compound | further results
– | O=C(Nc1ccc(O[C@H]2CCNC2)c(-c2ccc(F)cc2)c1)c1ccc(O[C@H]2CCNC2)c(-c2ccc(F)c(F)c2)c1 [Compound 21, (S)-3-((3′,4′-difluoro-5-((4′-fluoro-6-((S)-pyrrolidin-1-ium-3-yloxy)-[1,1′-biphenyl]-3-yl)carbamoyl)-[1,1′-biphenyl]-2-yl)oxy) pyrrolidin-1-ium chloride] | Kd [1]: 1.59 ± 0.045 µM; inhibition of mRNA expression [2]: More than 50%; Kd [3]: 0.333 ± 0.006 µM; Kd [4]: 0.924 ± 0.033 µM
2.1 ± 0.432 µM | O=C(NCCCC(=O)N1CCNCC1)c1ccc(-c2cc(C(=O)Nc3ccc(O[C@H]4CCNC4)c(-c4ccc(F)cc4)c3)ccc2O[C@H]2CCNC2)cc1 [Compound 29, 4-(4-(5′-((4′-fluoro-6-((S)-pyrrolidin-1-ium-3-yloxy)-[1,1′-biphenyl]-3-yl)carbamoyl)-2′-((S)-pyrrolidin-1-ium-3-yloxy)-[1,1′-biphenyl]-4-ylcarboxamido)butanoyl) piperazin-1-ium] | relative inhibitory potency for β-catenin/BCL9 PPIs (in words) ([5]; AlphaScreen assay, comparison with named compound): comparable inhibitory potency for β-catenin/BCL9 PPIs as 21; selectivity for β-catenin/BCL9 over β-catenin/E-cadherin PPIs (in words) [6]: much higher selectivity
149 ± 5.69 µM | NCCOc1ccc(C(=O)Nc2cccc(-c3ccc(Cl)cc3F)c2)cc1-c1ccc(F)cc1 [Compound 12, 2-((5-((4′-Chloro-2′-fluoro-[1,1′-biphenyl]-3-yl)carbamoyl)-4′-fluoro-[1,1′-biphenyl]-2-yl)oxy) ethanaminium chloride] | –
96.4 ± 9.78 µM | CC(=O)Nc1cccc(-c2cc(NC(=O)c3ccc(O[C@H]4CCNC4)c(-c4ccc(F)c(F)c4)c3)ccc2O[C@H]2CCNC2)c1 [Compound 103] | –
27.7 ± 3.67 µM | NCCOc1ccc(C(=O)Nc2cccc(-c3ccc(F)c(F)c3)c2)cc1-c1ccc(F)cc1 [Compound 10, 2-((5-((3′,4′-Difluoro-[1,1′-biphenyl]-3-yl)carbamoyl)-4′-fluoro-[1,1′-biphenyl]-2-yl)oxy) ethanaminium chloride] | –
– | Cl.NCCCc1ccc(C(N)=O)cc1-c1ccc(F)cc1 [Compound 6, 3-(5-Carbamoyl-4′-fluoro-[1,1′-biphenyl]-2-yl) propan-1-aminium chloride] | fold more potent than 4 ([5]; AlphaScreen assay, relative to compound 4): 5 fold
124 ± 10.4 µM | O=C(Nc1ccc(O[C@H]2CCNC2)c(-c2ccc(F)nc2)c1)c1ccc(O[C@H]2CCNC2)c(-c2ccc(F)c(F)c2)c1 [Compound 91m, 3′,4′-Difluoro-N-(3-(6-fluoropyridin-3-yl)-4-((S)-pyrrolidin-3-yloxy)phenyl)-6-((S)-pyrrolidin-3-yloxy)-[1,1′-biphenyl]-3-carboxamide dihydrochloride] | –
25.9 ± 5.58 µM | N#Cc1cccc(-c2cc(NC(=O)c3ccc(O[C@H]4CCNC4)c(-c4ccc(F)c(F)c4)c3)ccc2O[C@H]2CCNC2)c1 [Compound 91e, N-(3′-cyano-6-((S)-pyrrolidin-3-yloxy)-[1,1′-biphenyl]-3-yl)-3′,4′-difluoro-6-((S)-pyrrolidin-3-yloxy)-[1,1′-biphenyl]-3-carboxamide dihydrochloride] | –
74 ± 3.48 µM | NCCOc1ccc(C(=O)Nc2cccc(-c3ccc(F)cc3)c2)cc1-c1ccc(Cl)c(F)c1 [Compound 14, 2-((4′-Chloro-3′-fluoro-5-((4′-fluoro-[1,1′-biphenyl]-3-yl)carbamoyl)-[1,1′-biphenyl]-2-yl)oxy) ethanaminium chloride] | –
3.91 ± 0.734 µM | O=C(Nc1ccc(O[C@H]2CCNC2)c(-c2cccc(-c3nn[nH]n3)c2)c1)c1ccc(O[C@H]2CCNC2)c(-c2ccc(F)c(F)c2)c1 [Compound 91k, 3′,4′-Difluoro-6-((S)-pyrrolidin-3-yloxy)-N-(6-((S)-pyrrolidin-3-yloxy)-3′-(2h-tetrazol-5-yl)-[1,1′-biphenyl]-3-yl)-[1,1′-biphenyl]-3-carboxamide dihydrochloride] | –
